Assays:
Format in all cases: in vivo
[1] = test system: embryos of Danio rerio (i.e., zebrafish); experiment: Development of zebrafish embryos levitated in paramagnetic medium
Experimental: To show the applicability of the present methodologies, two experiments using magnetic levitation ([…]) to quantify the change in density in different organisms are described. In particular, experiments were performed on C. elegans and embryos of Danio rerio (i.e., zebrafish). In these embodiments, the paramagnetic salt was chelated Mn•EDTA, and the osmolality of the paramagnetic medium was approximately isotonic with the species under study ( 300 mOsm/kg). The development of zebrafish was monitored over a period of 54 h in a solution of 100 mM Gd•DTPA and 150 mM Gd•DTPA with Percoll and a saline solution (FIG. 4). […] In these experiments, four zebrafish embryos (collected from one strain of fish) were placed into a paramagnetic medium containing Gd•DTPA, Percoll and saline buffer. For these experiments, polystyrene spheres were included as density controls. After 16 hours of monitoring development, the levitation medium was changed to one composed of a higher concentration of the gadolinium chelate.

C. elegans [2] = experiment: Density of C. elegans by magnetic levitation (MagLev) after exposure to drug; details: worms treated with 6 mM aspirin (and Nile Red); medium 33% Percoll, 67% M9 buffer, 135 mM Mn•EDTA, 0.057 mM Ivermectin; T=23° C; N=10 worms; untreated 1.074±0.001
Experimental: To show the applicability of the present methodologies, two experiments using magnetic levitation (MagLev) to quantify the change in density in different organisms are described. In particular, experiments were performed on C. elegans and embryos of Danio rerio (i.e., zebrafish). In these embodiments, the paramagnetic salt was chelated Mn•EDTA, and the osmolality of the paramagnetic medium was approximately isotonic with the species under study (˜300 mOsm/kg).
In the experiments on C. elegans, the organism was exposed to aspirin, which results in an accumulation of lipids in the organism due to the sequestration of coenzyme A and the inhibition of fatty acid degradation. A density estimate of C. elegans exposed to aspirin and the density of control C. elegans that were not exposed to aspirin was determined via a Percoll gradient. […] Aspirin-treated C. elegans were centrifuged with a set of density marker beads in order to measure the density of different populations of C. elegans qualitatively and to establish the ranges of interest for quantitative density measurements using MagLev. […]
Using MagLev, the density of different populations of C. elegans was calculated with high precision. […] The magnetic levitation set up used to quantify the density of each worm involved placing the sample between two magnets. […]

C. elegans [3] = experiment: Density estimate of C. elegans by centrifugation in a Percoll gradient with density marker beads; details: qualitative
Experimental: In the experiments on C. elegans, the organism was exposed to aspirin, which results in an accumulation of lipids in the organism due to the sequestration of coenzyme A and the inhibition of fatty acid degradation. A density estimate of C. elegans exposed to aspirin and the density of control C. elegans that were not exposed to aspirin was determined via a Percoll gradient. The density of C. elegans changed upon exposure to aspirin with respect to an unexposed control group. Aspirin-treated C. elegans were centrifuged with a set of density marker beads in order to measure the density of different populations of C. elegans qualitatively and to establish the ranges of interest for quantitative density measurements using MagLev. A chelated form of manganese, ethylenediaminetetraacetic acid disodium manganese salt (Mn•EDTA), was used in the MagLev experiments as it is FDA approved for in vivo applications. The analysis of treated and untreated populations of C. elegans by MagLev employed concentrations of Mn•EDTA up to several hundred millimolar. C. elegans were motile within the paramagnetic solution and their swimming motion counteracted the balance of magnetic and gravitational forces within the MagLev device. Ivermectin was introduced into the paramagnetic solution to paralyze the organisms, this stabilized the organisms within the MagLev device.

SMILES	development of embryos in the paramagnetic solution ([1]; 100 mM and 150 mM Gd•DTPA with Percoll and saline solution, monitored over 54 h)	morphology of the embryos after increase in concentration of the paramagnetic salt ([1]; medium changed after 16 hours to a higher concentration of the gadolinium chelate)	density of worms (MagLev) (C. elegans [2])	density of C. elegans upon exposure, with respect to unexposed control group (C. elegans [3])
O=C([O-])CN(CCN(CC(=O)[O-])CC(=O)O)CCN(CC(=O)[O-])CC(=O)O.[Gd+3] [Gd•DTPA]	not affected	did not affect the morphology		
CC(=O)Oc1ccccc1C(=O)O [aspirin]			1.070 ± 0.002 g/mL	changed
